Results as given in PubChem BioAssay AID330 (DTP/NCI, 2004).
Several values for one entry are separate records, joined by “and”; a condition that tells them apart may be missing. Identical values can stand only once. Inconclusive results and toxic doses are left out.

Test system: P388 leukemia ip, CD2F1 mice, survival T/C
Assay: NCI In Vivo Anticancer Drug Screen. Data for tumor model P388 Leukemia (intraperitoneal) in CD2F1 (CDF1) mice
Conditions: endpoint: median survival time, higher = longer survival
Summary of the method: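 Mice carrying the transplanted tumor received test compound or vehicle. Survival was recorded in each group, and the value is the treated-group measurement divided by that of the vehicle-treated control group.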

[1] = dose: 50.0 mg/kg/injection, schedule: Q01DX005 (ip), vehicle: Klucel (hydroxypropylcellulose) (HPC)
[2] = dose: 100.0 mg/kg/injection, schedule: Q01DX005 (ip), vehicle: Klucel (hydroxypropylcellulose) (HPC)
[3] = dose: 200.0 mg/kg/injection, schedule: Q01DX005 (ip), vehicle: Klucel (hydroxypropylcellulose) (HPC)
[4] = dose: 50.0 mg/kg/injection, schedule: Q01DX009 (ip), vehicle: Klucel (hydroxypropylcellulose) (HPC)
[5] = dose: 100.0 mg/kg/injection, schedule: Q01DX009 (ip), vehicle: Klucel (hydroxypropylcellulose) (HPC)
[6] = dose: 200.0 mg/kg/injection, schedule: Q01DX009 (ip), vehicle: Klucel (hydroxypropylcellulose) (HPC)
[7] = dose: 50.0 mg/kg/injection, schedule: Q01DX005 (ip), vehicle: saline with Tween-80
[8] = dose: 100.0 mg/kg/injection, schedule: Q01DX005 (ip), vehicle: saline with Tween-80
[9] = dose: 200.0 mg/kg/injection, schedule: Q01DX005 (ip), vehicle: saline with Tween-80
[10] = dose: 100.0 mg/kg/injection, schedule: Q04DX003 (ip), vehicle: saline with Tween-80
[11] = dose: 200.0 mg/kg/injection, schedule: Q04DX003 (ip), vehicle: saline with Tween-80
[12] = dose: 400.0 mg/kg/injection, schedule: Q04DX003 (ip), vehicle: saline with Tween-80

## O=C1C=CC(Nc2cccc([N+](=O)[O-])c2)C1Nc1cccc([N+](=O)[O-])c1 (centres undefined)
dose: 7.5 mg/kg/injection, schedule: Q01DX005 (ip), vehicle: saline with Tween-80
  T/C: 102 % of control
dose: 15.0 mg/kg/injection, schedule: Q01DX005 (ip), vehicle: saline with Tween-80
  T/C: 90 % of control
dose: 30.0 mg/kg/injection, schedule: Q01DX005 (ip), vehicle: saline with Tween-80
  T/C: 91 % of control
dose: 240.0 mg/kg/injection, schedule: Q01DX005 (ip), vehicle: saline with Tween-80
  T/C: 88 % of control and 92 % of control

## CCCN(CCC)CC(=O)NC1c2ccccc2Oc2ccccc21
[1]
  T/C: 101 % of control
[2]
  T/C: 101 % of control
[3]
  T/C: 90 % of control

## Cc1cc(C(=O)O)c(C)c(S(=O)(=O)O)c1
dose: 12.5 mg/kg/injection, schedule: Q01DX009 (ip), vehicle: water
  T/C: 102 % of control
dose: 25.0 mg/kg/injection, schedule: Q01DX009 (ip), vehicle: water
  T/C: 97 % of control
dose: 50.0 mg/kg/injection, schedule: Q01DX009 (ip), vehicle: water
  T/C: 92 % of control
dose: 100.0 mg/kg/injection, schedule: Q01DX009 (ip), vehicle: water
  T/C: 102 % of control
dose: 200.0 mg/kg/injection, schedule: Q01DX009 (ip), vehicle: water
  T/C: 99 % of control

## NC(=O)C1=C2NC(=O)c3ccccc3C2C2=C1CCCC2 (centres undefined)
dose: 12.5 mg/kg/injection, schedule: Q01DX005 (ip), vehicle: Klucel (hydroxypropylcellulose) (HPC)
  T/C: 90 % of control
dose: 25.0 mg/kg/injection, schedule: Q01DX005 (ip), vehicle: Klucel (hydroxypropylcellulose) (HPC)
  T/C: 92 % of control
[1]
  T/C: 98 % of control and 105 % of control

## O=S1(N2CC2)=NP(N2CC2)(N2CC2)=NP(N2CC2)(N2CC2)=N1 (centres undefined)
dose: 100.0 mg/kg/injection, schedule: Q04DX002 (ip), vehicle: saline
  T/C: 168 % of control
dose: 150.0 mg/kg/injection, schedule: Q04DX002 (ip), vehicle: saline
  T/C: 198 % of control

## CC1=Nc2cccnc2N(C)N1C
dose: 15.0 mg/kg/injection, schedule: Q01DX005 (ip), vehicle: saline
  T/C: 94 % of control
dose: 30.0 mg/kg/injection, schedule: Q01DX005 (ip), vehicle: saline
  T/C: 98 % of control
dose: 60.0 mg/kg/injection, schedule: Q01DX005 (ip), vehicle: saline
  T/C: 98 % of control and 106 % of control

## NC(=O)C1OC(n2cnc3c(N)ncnc32)C(O)C1O (centres undefined)
dose: 1.56 mg/kg/injection, schedule: Q01DX005 (ip), vehicle: saline with Tween-80
  T/C: 100 % of control and 104 % of control
dose: 3.13 mg/kg/injection, schedule: Q01DX005 (ip), vehicle: saline with Tween-80
  T/C: 105 % of control and 114 % of control
dose: 6.25 mg/kg/injection, schedule: Q01DX005 (ip), vehicle: saline with Tween-80
  T/C: 109 % of control and 115 % of control and 121 % of control

## COC(=O)C(CSCc1ccccc1)NC(=O)CCNC(=O)c1ccccc1 (centres undefined)
dose: 12.5 mg/kg/injection, schedule: Q01DX009 (ip), vehicle: distilled water + Tween-80
  T/C: 100 % of control
dose: 25.0 mg/kg/injection, schedule: Q01DX009 (ip), vehicle: distilled water + Tween-80
  T/C: 94 % of control
dose: 50.0 mg/kg/injection, schedule: Q01DX009 (ip), vehicle: distilled water + Tween-80
  T/C: 98 % of control
dose: 100.0 mg/kg/injection, schedule: Q01DX009 (ip), vehicle: distilled water + Tween-80
  T/C: 91 % of control
dose: 200.0 mg/kg/injection, schedule: Q01DX009 (ip), vehicle: distilled water + Tween-80
  T/C: 111 % of control

## O=C(Nc1cccc2ccccc12)C1C(=O)C(=O)N(c2cccc3ccccc23)C1=O (centres undefined)
[4]
  T/C: 103 % of control
[5]
  T/C: 105 % of control
[6]
  T/C: 100 % of control

## CC1Cc2ccc(OCCN(C)C)cc2C1=O (centres undefined)
[7]
  T/C: 98 % of control
[8]
  T/C: 99 % of control

## C=C(CSCCCCCCCCCCCC)C(=O)O
[7]
  T/C: 116 % of control
[8]
  T/C: 114 % of control
[9]
  T/C: 115 % of control

## CS(=O)(=O)N(CC(=O)O)Cc1ccc(Cl)c(Cl)c1
dose: 25.0 mg/kg/injection, schedule: Q04DX003 (ip), vehicle: Klucel + Tween-80
  T/C: 92 % of control
dose: 50.0 mg/kg/injection, schedule: Q04DX003 (ip), vehicle: Klucel + Tween-80
  T/C: 100 % of control
dose: 100.0 mg/kg/injection, schedule: Q04DX003 (ip), vehicle: Klucel + Tween-80
  T/C: 98 % of control
dose: 200.0 mg/kg/injection, schedule: Q04DX003 (ip), vehicle: Klucel + Tween-80
  T/C: 91 % of control

## CCCCCCCNC1CCCc2cc(OC)ccc21 (centres undefined)
dose: 50.0 mg/kg/injection, schedule: Q04DX003 (ip), vehicle: saline
  T/C: 113 % of control
dose: 100.0 mg/kg/injection, schedule: Q04DX003 (ip), vehicle: saline
  T/C: 99 % of control

## C[C@]12CC[C@H](O)CC1=CC[C@@H]1[C@@H]2CC[C@]2(C)C(=O)CC[C@@H]12
dose: 25.0 mg/kg/injection, schedule: Q01DX005 (ip), vehicle: saline with Tween-80
  T/C: 94 % of control
[7]
  T/C: 90 % of control
[8]
  T/C: 91 % of control
[9]
  T/C: 90 % of control

## CC(=O)Oc1ccc(OC(C)=O)c(CBr)c1CBr
dose: 25.0 mg/kg/injection, schedule: Q04DX002 (ip), vehicle: Klucel (hydroxypropylcellulose) (HPC)
  T/C: 100 % of control
dose: 50.0 mg/kg/injection, schedule: Q04DX002 (ip), vehicle: Klucel (hydroxypropylcellulose) (HPC)
  T/C: 95 % of control
dose: 100.0 mg/kg/injection, schedule: Q04DX002 (ip), vehicle: Klucel (hydroxypropylcellulose) (HPC)
  T/C: 87 % of control and 93 % of control

## CC(C)C(N)P(=O)(O)O (centres undefined)
dose: 25.0 mg/kg/injection, schedule: Q01DX009 (ip), vehicle: suspension in saline
  T/C: 96 % of control
dose: 50.0 mg/kg/injection, schedule: Q01DX009 (ip), vehicle: suspension in saline
  T/C: 98 % of control
dose: 100.0 mg/kg/injection, schedule: Q01DX009 (ip), vehicle: suspension in saline
  T/C: 99 % of control
dose: 200.0 mg/kg/injection, schedule: Q01DX009 (ip), vehicle: suspension in saline
  T/C: 100 % of control

## CCOC(=O)C(F)C(Br)C(=O)OCC (centres undefined)
dose: 25.0 mg/kg/injection, schedule: Q01DX009 (ip), vehicle: saline with Tween-80
  T/C: 105 % of control and 120 % of control
dose: 50.0 mg/kg/injection, schedule: Q01DX009 (ip), vehicle: saline with Tween-80
  T/C: 117 % of control
dose: 100.0 mg/kg/injection, schedule: Q01DX009 (ip), vehicle: saline with Tween-80
  T/C: 123 % of control

## O=C1c2ccccc2CCC12OC2c1cccnc1 (centres undefined)
dose: 25.0 mg/kg/injection, schedule: Q01DX009 (ip), vehicle: Klucel (hydroxypropylcellulose) (HPC)
  T/C: 100 % of control
[4]
  T/C: 100 % of control
[5]
  T/C: 104 % of control

## Brc1c(-c2ccccc2)nc2ccccc2c1Br
[7]
  T/C: 103 % of control
[8]
  T/C: 97 % of control
[9]
  T/C: 94 % of control

## CSc1cccc(NC(=O)OCCOc2ccc(Cl)c(C)c2)c1
[4]
  T/C: 92 % of control
[5]
  T/C: 97 % of control
[6]
  T/C: 92 % of control

## CCCCCCCC(=O)Nc1cc(C)ccc1C
[10]
  T/C: 100 % of control
[11]
  T/C: 86 % of control
[12]
  T/C: 90 % of control

## C/C=C/C=c1/[nH]c(=O)/c(=C\C)[nH]c1=O
dose: 50.0 mg/kg/injection, schedule: Q04DX003 (ip), vehicle: Klucel (hydroxypropylcellulose) (HPC)
  T/C: 100 % of control
dose: 100.0 mg/kg/injection, schedule: Q04DX003 (ip), vehicle: Klucel (hydroxypropylcellulose) (HPC)
  T/C: 98 % of control
dose: 200.0 mg/kg/injection, schedule: Q04DX003 (ip), vehicle: Klucel (hydroxypropylcellulose) (HPC)
  T/C: 90 % of control

## CCOP(=O)(Nc1ccc2c(c1)Cc1c-2cc(Br)c(NC(C)=O)c1Br)OCC
[1]
  T/C: 94 % of control
[2]
  T/C: 94 % of control
[3]
  T/C: 96 % of control

## COc1c(OCC(O)CN2CCCCC2)c2c(C)coc2c2ccoc12 (centres undefined)
[1]
  T/C: 100 % of control
[2]
  T/C: 96 % of control

## CNC(=O)OCCC(OC(=O)NC)C1CCC2C3CCC4CC(OC(=O)NC)CCC4(C)C3CCC12C (centres undefined)
dose: 100.0 mg/kg/injection, schedule: Q01DX001 (ip), vehicle: Klucel (hydroxypropylcellulose) (HPC)
  T/C: 108 % of control
dose: 200.0 mg/kg/injection, schedule: Q01DX001 (ip), vehicle: Klucel (hydroxypropylcellulose) (HPC)
  T/C: 108 % of control
dose: 400.0 mg/kg/injection, schedule: Q01DX001 (ip), vehicle: Klucel (hydroxypropylcellulose) (HPC)
  T/C: 101 % of control

## Cc1ccc(S(=O)(=O)C(Cl)Cl)cc1
dose: 50.0 mg/kg/injection, schedule: Q04DX003 (ip), vehicle: saline with Tween-80
  T/C: 100 % of control and 90 % of control and 93 % of control
[10]
  T/C: 111 % of control and 118 % of control and 93 % of control
[11]
  T/C: 104 % of control and 93 % of control
[12]
  T/C: 102 % of control

## Cn1c(=O)c2c(nnc(-c3ccc(Cl)c(Cl)c3)[n+]2[O-])n(C)c1=O
dose: 25.0 mg/kg/injection, schedule: Q01DX001 (ip), vehicle: Klucel (hydroxypropylcellulose) (HPC)
  T/C: 103 % of control
